Data on 3 molecules can be found in patent US20100093804A1, “NOVEL CRYSTALLINE FORM OF LANSOPRAZOLE” (HETERO DRUGS LIMITED, priority 2006, published 2010).

For data set [1] the following is noted: cited from earlier work.
The conditions of data set [2]: solid-solid transition to form A; cited from earlier work.
Data set [3] is described as follows: stability of the crystalline form over time. The format is physicochemical.

Read-outs that look alike come from different tables or passages of the source.

In the case of `Cc1c(OCC(F)(F)F)ccnc1C[S+]([O-])c1nc2ccccc2[nH]1` (stereo not shown) [lansoprazole crystalline form II, 2-[[[3-Methyl-4-(2,2,2-trifluoro-ethoxy)-2-pyridinyl]methyl]sulfinyl]-1H-benzimidazole], the “stability of crystalline form on storage” value in data set [1] (after some period of sample storage at higher temperatures) is given as “converted to stable crystalline form I”. The “stability of crystalline form” value in data set [1] (at temperatures below 0° C.) is listed as “stable”.

In the case of `Cc1c(OCC(F)(F)F)ccnc1C[S+]([O-])c1nc2ccccc2[nH]1` (stereo not shown) [crystalline lansoprazole form B, 2-[[[3-Methyl-4-(2,2,2-trifluoro-ethoxy)-2-pyridinyl]methyl]sulfinyl]-1H-benzimidazole], in data set [2], the “stability of crystalline form” value is “unstable”.

Turning to `Cc1c(OCC(F)(F)F)ccnc1C[S+]([O-])c1nc2ccccc2[nH]1` (stereo not shown) [lansoprazole form III, 2-[[[3-Methyl-4-(2,2,2-trifluoro-ethoxy)-2-pyridinyl]methyl]sulfinyl]-1H-benzimidazole], the “stability of crystalline form” value in data set [3] was “stable”.
